Source: patent US9487476B2, “Catechol diethers as potent anti-HIV agents” (priority 2011, dated 2016)
Read-outs that look alike come from different tables or passages of the source.

Key:
Type in all cases: cell-based
WT HIV-1 (IIIB strain) = experiment: Anti-HIV-1 activity, protection of infected MT-2 cells (MTT)
MT-2 human T-cells = experiment: Cytotoxicity, inhibition of MT-2 cell growth
[1] = tested on: HIV-1 variant containing the Y181C (Tyr181Cys) mutation; experiment: Anti-HIV-1 activity against variant strain in MT-2 cells (MTT); conditions: Human immunodeficiency virus 1, MT2, read-out: EC50 Y181C
[2] = tested on: HIV-1 variant containing the K103N/Y181C mutations; experiment: Anti-HIV-1 activity against double-mutant strain in MT-2 cells (MTT); conditions: Human immunodeficiency virus 1, MT2, read-out: EC50 K103N/Y181C
[3] = Table 4, catechol diether derivatives, MT-2 cells, read-out: Anti-HIV-1 Activity (EC50)
[4] = Human immunodeficiency virus 1, IIIB, MT2, running text, read-out: EC50 against WT HIV-1

Row | SMILES | EC50 (WT HIV-1 (IIIB strain); [4]) [µM] | CC50 (MT-2 human T-cells; human) [µM] | also measured
1 | N#C/C=C/c1cc(Cl)cc(Oc2ccc(Br)cc2OCCn2ccc(=O)[nH]c2=O)c1 [JLJ531] | – | – | EC50 (WT HIV-1 (IIIB strain); [3]): 0.0091 µM; CC50 (MT-2 human T-cells): 13 µM
2 | COCCOc1cccc(Oc2ccc(C#N)cc2OCCn2ccc(=O)[nH]c2=O)c1 [Compound 46, 3-(2-(2,4-dioxo-3,4-dihydropyrimidin-1(2H)-yl)ethoxy)-4-(3-(2-methoxyethoxy)phenoxy)benzonitrile] | 0.54 | > 100 | –
3 | N#C/C=C/c1cc(F)cc(Oc2ccc(OCCN3CCOCC3)cc2OCCn2ccc(=O)[nH]c2=O)c1 [JLJ526] | – | – | EC50 (WT HIV-1 (IIIB strain); [3]): 0.52 µM; CC50 (MT-2 human T-cells): 27 µM
4 | N#Cc1ccc(Oc2ccccc2Cl)c(OCCn2ccc(=O)[nH]c2=O)c1 [Compound 30, 4-(2-chlorophenoxy)-3-(2-(2,4-dioxo-3,4-dihydropyrimidin-1(2H)-yl)ethoxy)benzonitrile] | 0.27 | > 100 | –
5 | N#Cc1ccc(Cl)c(Oc2ccc(Cl)cc2OCCn2ccc(=O)[nH]c2=O)c1 [Compound 23, 4-chloro-3-(4-chloro-2-(2-(2,4-dioxo-3,4-dihydropyrimidin-1(2H)-yl)ethoxy)phenoxy)benzonitrile] | – | 60 | –
6 | N#Cc1cc(Cl)cc(Oc2ccc(Cl)cc2OCCn2ccc(=O)[nH]c2=O)c1 [Compound 25, 3-chloro-5-(4-chloro-2-(2-(2,4-dioxo-3,4-dihydropyrimidin-1(2H)-yl)ethoxy)phenoxy)benzonitrile] | 0.014 | > 100 | EC50 [1]: 0.52 µM; EC50 [2]: 1.7 µM; cytotoxicity, limit of the tested concentration range (MT-2 human T-cells; human): > 100 µM
7 | N#C/C=C/c1cccc(Oc2ccc(C#N)cc2OCCn2ccc(=O)[nH]c2=O)c1 [Compound 40, (E)-4-(3-(2-cyanovinyl)phenoxy)-3-(2-(2,4-dioxo-3,4-dihydropyrimidin-1(2H)-yl)ethoxy)benzonitrile] | 0.015 | – | EC50 [1]: 0.98 µM; EC50 [2]: 8 µM
8 | O=c1ccn(CCOc2ccc(Cl)cc2Cc2c(Cl)cccc2Cl)c(=O)[nH]1 [Compound 11, 1-(2-(4-chloro-2-(2,6-dichlorobenzyl)phenoxy)ethyl)pyrimidine-2,4(1H,3H)-dione] | – | 49 | –
9 | N#Cc1cc(C#N)cc(Oc2ccc(Cl)cc2OCCn2ccc(=O)[nH]c2=O)c1 [Compound 24, 5-(4-chloro-2-(2-(2,4-dioxo-3,4-dihydropyrimidin-1(2H)-yl)ethoxy)phenoxy)isophthalonitrile] | – | > 100 | –
10 | N#C/C=C/c1cc(F)cc(Oc2ccc(Br)cc2OCCn2ccc(=O)[nH]c2=O)c1 [JLJ511] | – | – | EC50 (WT HIV-1 (IIIB strain); [3]): 0.0018 µM; CC50 (MT-2 human T-cells): 15 µM
11 | O=c1[nH]c(=O)n(CCOc2ccc(Cl)cc2Cc2ccccc2)cc1F [Compound 13, 1-(2-(2-benzyl-4-chlorophenoxy)ethyl)-5-fluoropyrimidine-2,4(1H,3H)-dione] | – | 27 | –
12 | N#Cc1ccc(Oc2cc(Cl)cc(Cl)c2)c(OCCn2ccc(=O)[nH]c2=O)c1 [Compound 32, 4-(3,5-dichlorophenoxy)-3-(2-(2,4-dioxo-3,4-dihydropyrimidin-1(2H)-yl)ethoxy)benzonitrile] | 0.02 | – | EC50 [1]: 0.8 µM; EC50 [2]: > 43 µM
13 | N#Cc1cc(C#N)cc(Oc2cc(Cl)ccc2OCCn2ccc(=O)[nH]c2=O)c1 [Compound 20, 5-(5-chloro-2-(2-(2,4-dioxo-3,4-dihydropyrimidin-1(2H)-yl)ethoxy)phenoxy)isophthalonitrile] | – | – | EC50 [1]: 21 µM; EC50 [2]: 2.2 µM
14 | N#Cc1cc(Cl)cc(Oc2cc(Cl)ccc2OCCn2ccc(=O)[nH]c2=O)c1 [Compound 22, 3-chloro-5-(5-chloro-2-(2-(2,4-dioxo-3,4-dihydropyrimidin-1(2H)-yl)ethoxy)phenoxy)benzonitrile] | – | – | EC50 [1]: 6.7 µM; EC50 [2]: 1.2 µM
15 | N#C/C=C/c1cc(Br)cc(Oc2ccc(Cl)cc2OCCn2ccc(=O)[nH]c2=O)c1 [JLJ518] | – | – | EC50 (WT HIV-1 (IIIB strain); [3]): 0.0052 µM; CC50 (MT-2 human T-cells): 80 µM
16 | N#Cc1ccc(Oc2cc(Cl)ccc2Cl)c(OCCn2ccc(=O)[nH]c2=O)c1 [Compound 31, 4-(2,5-dichlorophenoxy)-3-(2-(2,4-dioxo-3,4-dihydropyrimidin-1(2H)-yl)ethoxy)benzonitrile] | 0.043 | – | EC50 [1]: 0.92 µM; EC50 [2]: 2.8 µM
17 | N#Cc1cc(Cl)cc(Oc2ccc(C#N)cc2OCCn2ccc(=O)[nH]c2=O)c1 [Compound 28, 4-(3-chloro-5-cyanophenoxy)-3-(2-(2,4-dioxo-3,4-dihydropyrimidin-1(2H)-yl)ethoxy)benzonitrile] | – | > 100 | –
18 | O=c1ccn(CCOc2ccc(Cl)cc2Cc2cccc(Cl)c2)c(=O)[nH]1 [Compound 7, 1-(2-(4-chloro-2-(3-chlorobenzyl)phenoxy)ethyl)pyrimidine-2,4(1H,3H)-dione] | – | 11 | –
19 | COc1cc(Cl)ccc1Oc1cc(Cl)cc(C#N)c1 [Compound 36, 3-chloro-5-(4-chloro-2-methoxyphenoxy)benzonitrile] | 9.9 | – | –
20 | O=c1ccn(CCOc2ccc(Cl)cc2Cc2cc(Cl)ccc2Cl)c(=O)[nH]1 [Compound 10, 1-(2-(4-chloro-2-(2,5-dichlorobenzyl)phenoxy)ethyl)pyrimidine-2,4(1H,3H)-dione] | – | 15 | –

Row | SMILES | EC50 (WT HIV-1 (IIIB strain); [4]) [µM] | CC50 (MT-2 human T-cells; human) [µM] | also measured
21 | O=c1[nH]c(=O)n(CCOc2ccc(Cl)cc2Cc2ccccc2)cc1Cl [Compound 14, 1-(2-(2-benzyl-4-chlorophenoxy)ethyl)-5-chloropyrimidine-2,4(1H,3H)-dione] | – | 21 | –
22 | O=c1ccn(CCOc2cc(Cl)cc(Cl)c2Oc2ccccc2Cl)c(=O)[nH]1 [Compound 45, 1-(2-(3,5-dichloro-2-(2-chlorophenoxy)phenoxy)ethyl)pyrimidine-2,4(1H,3H)-dione] | 0.83 | 13 | –
23 | N#Cc1cccc(Cl)c1Oc1cc(Cl)ccc1OCCn1ccc(=O)[nH]c1=O [Compound 21, 3-chloro-2-(5-chloro-2-(2-(2,4-dioxo-3,4-dihydropyrimidin-1(2H)-yl)ethoxy)phenoxy)benzonitrile] | – | 50 | –
24 | O=c1ccn(CCOc2cc(Cl)ccc2Cc2ccccc2Cl)c(=O)[nH]1 [Compound 15, 1-(2-(5-chloro-2-(2-chlorobenzyl)phenoxy)ethyl)pyrimidine-2,4(1H,3H)-dione] | – | 12 | –
25 | Cc1cn(CCOc2ccc(Cl)cc2Cc2ccccc2)c(=O)[nH]c1=O [Compound 12, 1-(2-(2-benzyl-4-chlorophenoxy)ethyl)-5-methylpyrimidine-2,4(1H,3H)-dione] | – | 22 | –
26 | N#Cc1cc(Cl)cc(Oc2ccc(Cl)cc2OCCn2cc(F)c(=O)[nH]c2=O)c1 [Compound 26, 3-chloro-5-(4-chloro-2-(2-(5-fluoro-2,4-dioxo-3,4-dihydropyrimidin-1(2H)-yl)ethoxy)phenoxy)benzonitrile] | – | – | EC50 [1]: 0.62 µM; EC50 [2]: 1.7 µM
27 | N#Cc1ccc(Oc2cccc(OCCCO)c2)c(OCCn2ccc(=O)[nH]c2=O)c1 [Compound 47, 3-(2-(2,4-dioxo-3,4-dihydropyrimidin-1(2H)-yl)ethoxy)-4-(3-(3-hydroxypropoxy)phenoxy)benzonitrile] | 1.8 | > 100 | –
28 | O=c1ccn(CCOc2ccc(Cl)cc2Cc2ccccc2Cl)c(=O)[nH]1 [Compound 6, 1-(2-(4-chloro-2-(2-chlorobenzyl)phenoxy)ethyl)pyrimidine-2,4(1H,3H)-dione] | – | 28 | –
29 | N#Cc1cc(Cl)cc(Oc2ccc(C#N)cc2OCCn2cc(Cl)c(=O)[nH]c2=O)c1 [Compound 29, 3-(2-(5-chloro-2,4-dioxo-3,4-dihydropyrimidin-1(2H)-yl)ethoxy)-4-(3-chloro-5-cyanophenoxy)benzonitrile] | – | 94 | –
30 | N#Cc1cc(F)c(Oc2ccccc2Cl)c(OCCn2ccc(=O)[nH]c2=O)c1 [Compound 44, 4-(2-chlorophenoxy)-3-(2-(2,4-dioxo-3,4-dihydropyrimidin-1(2H)-yl)ethoxy)-5-fluorobenzonitrile] | 0.16 | > 100 | –
31 | N#Cc1ccc(Oc2cc(Cl)ccc2Cl)c(OCc2ccncc2)c1 [Compound 34] | 12 | – | –
32 | N#Cc1ccc(Oc2cc(Cl)ccc2Cl)c(COCc2ccncc2)c1 [Compound 35, 4-(2,5-dichlorophenoxy)-3-((pyridin-4-ylmethoxy)methyl)benzonitrile] | 1.8 | – | –
33 | Cc1ccc(OCCn2ccc(=O)[nH]c2=O)c(Cc2ccccc2)c1 [Compound 1, 1-(2-(2-benzyl-4-methylphenoxy)ethyl)pyrimidine-2,4(1H,3H)-dione] | 5 | – | –
34 | N#C/C=C/c1cccc(Oc2ccc(Cl)cc2OCCn2ccc(=O)[nH]c2=O)c1 [Compound 41, (E)-3-(3-(4-chloro-2-(2-(2,4-dioxo-3,4-dihydropyrimidin-1(2H)-yl)ethoxy)phenoxy)phenyl)acrylonitrile] | 0.005 | – | EC50 [1]: 0.37 µM; EC50 [2]: 1.6 µM
35 | N#Cc1ccc(Oc2cc(Cl)ccc2Cl)c(OCCc2ccncc2)c1 [Compound 33, 4-(2,5-dichlorophenoxy)-3-(2-(pyridin-4-yl)ethoxy)benzonitrile] | 0.76 | – | –
36 | O=c1ccn(CCOc2ccc(Cl)cc2Cc2cc(Cl)cc(Cl)c2)c(=O)[nH]1 [Compound 9, 1-(2-(4-chloro-2-(3,5-dichlorobenzyl)phenoxy)ethyl)pyrimidine-2,4(1H,3H)-dione] | – | 10 | –
37 | N#C/C=C/c1cc(Cl)cc(Oc2ccc(OCCN3CCOCC3)cc2OCCn2ccc(=O)[nH]c2=O)c1 [JLJ530] | – | – | EC50 (WT HIV-1 (IIIB strain); [3]): 1.1 µM; CC50 (MT-2 human T-cells): 100 µM
38 | O=c1ccn(CCOc2ccc(Cl)cc2Cc2ccccc2)c(=O)[nH]1 [Compound 5, 1-(2-(2-benzyl-4-chlorophenoxy)ethyl)pyrimidine-2,4(1H,3H)-dione] | – | 23 | –
39 | O=c1ccn(CCOc2ccc(Cl)cc2Cc2ccc(Cl)cc2Cl)c(=O)[nH]1 [Compound 8, 1-(2-(4-chloro-2-(2,4-dichlorobenzyl)phenoxy)ethyl)pyrimidine-2,4(1H,3H)-dione] | – | 88 | –
